# “And” between values parts separate entries of the source, which are not always exact repeats. Equal entries are not always repeated. Inconclusive results and toxic doses are left out.
# System: L1210 leukemia ip in BDF1 mice, survival T/C
# Test: NCI In Vivo Anticancer Drug Screen. Data for tumor model L1210 Leukemia (intraperitoneal) in B6D2F1 (BDF1) mice
# Conditions: endpoint: mean survival time, higher = longer survival
# Summary of the method: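 Transplanted-tumor mice were given test agent; controls received vehicle only. Survival readings from the two groups were divided (treated over control).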
# [1] = dose: 100.0 mg/kg/injection, schedule: Q01DX001 (ip), vehicle: saline
# [2] = dose: 200.0 mg/kg/injection, schedule: Q01DX001 (ip), vehicle: saline
# [3] = dose: 400.0 mg/kg/injection, schedule: Q01DX001 (ip), vehicle: saline
# [4] = dose: 50.0 mg/kg/injection, schedule: Q01DX009 (ip), vehicle: saline with Tween-80
# [5] = dose: 100.0 mg/kg/injection, schedule: Q01DX009 (ip), vehicle: saline with Tween-80
# [6] = dose: 100.0 mg/kg/injection, schedule: Q04DX003 (ip), vehicle: saline with Tween-80
# [7] = dose: 200.0 mg/kg/injection, schedule: Q01DX009 (ip), vehicle: saline with Tween-80
# [8] = dose: 200.0 mg/kg/injection, schedule: Q04DX003 (ip), vehicle: saline with Tween-80
# [9] = dose: 400.0 mg/kg/injection, schedule: Q04DX003 (ip), vehicle: saline with Tween-80
# [10] = dose: 100.0 mg/kg/injection, schedule: Q04DX002 (ip), vehicle: Klucel (hydroxypropylcellulose) (HPC)
# [11] = dose: 200.0 mg/kg/injection, schedule: Q04DX002 (ip), vehicle: Klucel (hydroxypropylcellulose) (HPC)
# [12] = dose: 100.0 mg/kg/injection, schedule: Q01DX009 (ip), vehicle: Klucel (hydroxypropylcellulose) (HPC)
# [13] = dose: 200.0 mg/kg/injection, schedule: Q01DX009 (ip), vehicle: Klucel (hydroxypropylcellulose) (HPC)
# [14] = dose: 100.0 mg/kg/injection, schedule: Q01DX001 (ip), vehicle: saline with Tween-80
# [15] = dose: 50.0 mg/kg/injection, schedule: Q01DX001 (ip), vehicle: carboxymethylcellulose (CMC)
# [16] = dose: 100.0 mg/kg/injection, schedule: Q01DX001 (ip), vehicle: carboxymethylcellulose (CMC)
# [17] = dose: 200.0 mg/kg/injection, schedule: Q01DX001 (ip), vehicle: carboxymethylcellulose (CMC)
# [18] = dose: 100.0 mg/kg/injection, schedule: Q01DX001 (ip), vehicle: Klucel (hydroxypropylcellulose) (HPC)
# [19] = dose: 12.5 mg/kg/injection, schedule: Q01DX009 (ip), vehicle: saline
# [20] = dose: 25.0 mg/kg/injection, schedule: Q01DX009 (ip), vehicle: saline
# [21] = dose: 50.0 mg/kg/injection, schedule: Q01DX009 (ip), vehicle: saline
# [22] = dose: 100.0 mg/kg/injection, schedule: Q04DX003 (ip), vehicle: Klucel (hydroxypropylcellulose) (HPC)
# [23] = dose: 200.0 mg/kg/injection, schedule: Q04DX003 (ip), vehicle: Klucel (hydroxypropylcellulose) (HPC)
# [24] = dose: 400.0 mg/kg/injection, schedule: Q01DX009 (ip), vehicle: Klucel (hydroxypropylcellulose) (HPC)
# [25] = dose: 400.0 mg/kg/injection, schedule: Q01DX001 (ip), vehicle: carboxymethylcellulose (CMC)
# [26] = dose: 100.0 mg/kg/injection, schedule: Q01DX009 (ip), vehicle: saline
# [27] = dose: 400.0 mg/kg/injection, schedule: Q04DX003 (ip), vehicle: Klucel (hydroxypropylcellulose) (HPC)
# [28] = dose: 25.0 mg/kg/injection, schedule: Q01DX009 (ip), vehicle: saline with Tween-80
compound,measurement,setting,value
N#CSCC(=O)OC1CCCCC1,T/C,"dose: 5.0 mg/kg/injection, schedule: Q01DX001 (ip), vehicle: saline",98 % of control
same,T/C,"dose: 10.0 mg/kg/injection, schedule: Q01DX001 (ip), vehicle: saline",96 % of control
same,T/C,"dose: 20.0 mg/kg/injection, schedule: Q01DX001 (ip), vehicle: saline",96 % of control
same,T/C,"dose: 40.0 mg/kg/injection, schedule: Q01DX001 (ip), vehicle: saline",93 % of control
CCCNC(=O)c1ccc(N)cc1,T/C,[1],104 % of control
same,T/C,[2],97 % of control
same,T/C,[3],97 % of control
N#CC1c2cc(OC(=O)c3ccccc3)ccc2C=CN1C(=O)c1ccccc1 (stereo not given),T/C,"dose: 100.0 mg/kg/injection, schedule: Q04DX003 (ip), vehicle: gum acacia",89 % of control
same,T/C,"dose: 200.0 mg/kg/injection, schedule: Q04DX003 (ip), vehicle: gum acacia",89 % of control
O=C1NC(=O)C2(CCCCCC2)N1,T/C,[4],101 % of control
same,T/C,"dose: 50.0 mg/kg/injection, schedule: Q04DX003 (ip), vehicle: saline with Tween-80",105 % of control
same,T/C,"dose: 100.0 mg/kg/injection, schedule: Q01DX009 (ip), vehicle: saline sonified",90 % of control
same,T/C,[5],101 % of control
same,T/C,[6],99 % of control and 111 % of control
same,T/C,"dose: 200.0 mg/kg/injection, schedule: Q01DX009 (ip), vehicle: saline sonified",96 % of control
same,T/C,[7],98 % of control
same,T/C,[8],100 % of control and 110 % of control
same,T/C,"dose: 400.0 mg/kg/injection, schedule: Q01DX009 (ip), vehicle: saline sonified",98 % of control
same,T/C,[9],106 % of control
Cc1cccc(NC(=O)NC2CCCCC2)c1C,T/C,[10],111 % of control
same,T/C,[11],99 % of control
same,T/C,"dose: 400.0 mg/kg/injection, schedule: Q04DX002 (ip), vehicle: Klucel (hydroxypropylcellulose) (HPC)",86 % of control
COc1cc(CCNC(=O)Cc2ccc(OCc3ccccc3)cc2)ccc1OCc1ccccc1,T/C,"dose: 50.0 mg/kg/injection, schedule: Q01DX009 (ip), vehicle: Klucel (hydroxypropylcellulose) (HPC)",91 % of control
same,T/C,[12],89 % of control
same,T/C,"dose: 100.0 mg/kg/injection, schedule: Q04DX003 (ip), vehicle: other",111 % of control
same,T/C,[13],89 % of control
same,T/C,"dose: 200.0 mg/kg/injection, schedule: Q04DX003 (ip), vehicle: other",105 % of control
same,T/C,"dose: 400.0 mg/kg/injection, schedule: Q04DX003 (ip), vehicle: other",94 % of control
CC(C)CCC(=O)OC1CCC2(C)C(=CCC3C2CCC2(C)C(O)CCC32)C1 (stereo not given),T/C,[14],92 % of control
same,T/C,"dose: 200.0 mg/kg/injection, schedule: Q01DX001 (ip), vehicle: saline with Tween-80",93 % of control
same,T/C,"dose: 400.0 mg/kg/injection, schedule: Q01DX001 (ip), vehicle: saline with Tween-80",101 % of control
CC1(/C=N/Nc2nnc(N/N=C/C3(C)CCC=CO3)c3ccccc23)CCC=CO1 (stereo not given),T/C,[15],106 % of control
same,T/C,[16],104 % of control
same,T/C,[17],87 % of control
N=C(N)c1cccc(OCCCc2ccccc2)c1,T/C,[18],100 % of control
same,T/C,"dose: 200.0 mg/kg/injection, schedule: Q01DX001 (ip), vehicle: Klucel (hydroxypropylcellulose) (HPC)",97 % of control
same,T/C,"dose: 400.0 mg/kg/injection, schedule: Q01DX001 (ip), vehicle: Klucel (hydroxypropylcellulose) (HPC)",100 % of control
CC(C)c1ccc(/C=N/NC(=O)c2ccc[n+](C)c2)cc1,T/C,[19],94 % of control
same,T/C,[20],98 % of control
same,T/C,[21],112 % of control and 91 % of control
O=S(=O)(Nc1cc(S(=O)(=O)c2ccccc2)c(NS(=O)(=O)c2ccccc2)c(Cl)c1Cl)c1ccccc1,T/C,"dose: 75.0 mg/kg/injection, schedule: Q04DX003 (ip), vehicle: Klucel (hydroxypropylcellulose) (HPC)",103 % of control
same,T/C,"dose: 150.0 mg/kg/injection, schedule: Q04DX003 (ip), vehicle: Klucel (hydroxypropylcellulose) (HPC)",92 % of control
same,T/C,"dose: 300.0 mg/kg/injection, schedule: Q04DX003 (ip), vehicle: Klucel (hydroxypropylcellulose) (HPC)",95 % of control
CC(C)(C)c1ccc(OC(=O)Nc2ccc(O)c(C(=O)O)c2)cc1,T/C,[18],115 % of control
same,T/C,[12],94 % of control and 98 % of control
same,T/C,[10],96 % of control and 118 % of control
same,T/C,[22],96 % of control
same,T/C,[13],94 % of control
same,T/C,[11],92 % of control and 86 % of control
same,T/C,[23],86 % of control
O=C(Cc1cccc2ccccc12)N/N=C/c1ccccc1Cl,T/C,[12],89 % of control and 90 % of control
same,T/C,[13],92 % of control
same,T/C,[24],86 % of control and 90 % of control
COC1(OC)CCC2(C)C(CCCC2OS(=O)(=O)c2ccc(C)cc2)C1 (stereo not given),T/C,[16],97 % of control
same,T/C,[17],108 % of control
same,T/C,[25],97 % of control
Cn1c2nc3ccccc3c-2nc2ccccc21,T/C,[6],91 % of control
same,T/C,[8],94 % of control
same,T/C,[9],86 % of control
CC(=NCC(=O)O)c1ccccc1,T/C,[20],104 % of control
same,T/C,[21],94 % of control
same,T/C,[26],90 % of control
same,T/C,"dose: 100.0 mg/kg/injection, schedule: Q04DX003 (ip), vehicle: saline",100 % of control
C=CC/C=C/CCC,T/C,[15],88 % of control
same,T/C,[17],88 % of control
same,T/C,[25],90 % of control
Cc1ccc(S(=O)(=O)Nc2ccccc2-c2nc3ccc([N+](=O)[O-])cc3c(=O)o2)cc1,T/C,[5],104 % of control
same,T/C,[7],96 % of control
O=C(O)/C=C/c1cccc(O)c1,T/C,[12],98 % of control
same,T/C,[22],92 % of control
same,T/C,[13],102 % of control
same,T/C,[23],97 % of control
same,T/C,[24],97 % of control
same,T/C,[27],98 % of control
C=CCCCCCCCCC(N)=O,T/C,[28],108 % of control
same,T/C,[4],96 % of control
same,T/C,[6],101 % of control
same,T/C,[8],95 % of control
same,T/C,[9],184 % of control
Cc1cn(C2CC(F)C(CO)O2)c(=O)[nH]c1=O (stereo not given),T/C,[19],108 % of control
same,T/C,[20],102 % of control
same,T/C,[21],117 % of control
same,T/C,"dose: 78.0 mg/kg/injection, schedule: Q01DX009 (ip), vehicle: saline",107 % of control
same,T/C,[26],121 % of control
same,T/C,"dose: 130.0 mg/kg/injection, schedule: Q01DX009 (ip), vehicle: saline",115 % of control
same,T/C,"dose: 360.0 mg/kg/injection, schedule: Q01DX009 (ip), vehicle: saline",109 % of control
COC(=O)CCCCC(=O)OCC#CC#CCOC(=O)CCCCC(=O)OC,T/C,[12],95 % of control
same,T/C,[22],91 % of control
same,T/C,[13],104 % of control
same,T/C,[23],92 % of control
same,T/C,[24],98 % of control
same,T/C,[27],92 % of control
CC(=O)Oc1ccccc1/C=C\C=O,T/C,[1],103 % of control
same,T/C,[2],106 % of control
same,T/C,[3],105 % of control
O=[N+]([O-])c1cc(S(=O)(=O)F)ccc1O,T/C,"dose: 5.0 mg/kg/injection, schedule: Q01DX001 (ip), vehicle: other",112 % of control
same,T/C,"dose: 10.0 mg/kg/injection, schedule: Q01DX001 (ip), vehicle: other",97 % of control
same,T/C,"dose: 20.0 mg/kg/injection, schedule: Q01DX001 (ip), vehicle: other",95 % of control
same,T/C,"dose: 40.0 mg/kg/injection, schedule: Q01DX001 (ip), vehicle: other",101 % of control
same,T/C,"dose: 80.0 mg/kg/injection, schedule: Q01DX001 (ip), vehicle: other",106 % of control
C=CC[n+]1c(C)ccc2ccccc21,T/C,[28],100 % of control
same,T/C,[4],115 % of control
same,T/C,[14],114 % of control
NCCSC1CCCCC1,T/C,"dose: 100.0 mg/kg/injection, schedule: Q04DX002 (ip), vehicle: saline",110 % of control
same,T/C,"dose: 200.0 mg/kg/injection, schedule: Q04DX002 (ip), vehicle: saline",94 % of control
